Experimental findings from patent US20090082304A1, “Methods of Treating Hematological Malignancies with Nucleoside Analog Drugs” (NORTHWESTERN UNIVERSITY, priority 2004, published 2009) are described below.

The assay deals with p38 MAPK. Put plainly: Immunoblot of phospho-p38 MAPK in MM.1 S cells. The conditions noted are these: 10 μM. Format: cell-based. The procedure:
5×10^6 were cells treated with 10 μM 8-NH2-Ado for the indicated times and harvested. Cell pellets were washed with cold phosphate-buffered saline (PBS; 8.1 g NaCl, 1.14 g Na2HPO4, 0.22 g KCl, and 0.25 g/L KH2PO4) and incubated with lysis buffer (50 mM HEPES, 150 mM NaCl, 1.5 mM MgCl2, 1 mM EDTA pH 8.0, 100 mM NaFI, 10 mM Na Pyrophosphate, 500 μM PMSF, 0.5% Triton X-100, 10% glycerol) at 4° C. for one hour. Lysates were centrifuged at 4° C. for 1 minute at 9000×g, and the supernatants were collected and stored at −20° C. Protein concentration was determined by Bio-Rad protein assay (BioRad Laboratories, Hercules, Calif.). Protein, at a concentration of 30 μg, was mixed with sample buffer (125 mM Tris, pH 6.8, 4% SDS, 20% glycerol, 100 mM Dithiothreitol (DTT), and 0.05% bromophenol blue), and fractionated on a pre-cast 8-16% Tris-Glycine gel (Invitrogen/Novex, Carlsbad, Calif.). Proteins were then transferred to a Polyvinylidene Fluoride (PVDF) membrane (Immobilon-P, Millipore, Bedford, Mass.): Following protein transfer, membranes were blocked with 5% non-fat milk in PBS-T (PBS with 0.1% Tween), incubated with the primary antibody overnight at 4° C. and subsequently with horseradish peroxidase linked secondary antibody (Amersham, Arlington Heights, Ill.). Blots were developed using ECL Plus Chemiluminescent Western Blotting Detection reagent (Amersham, Arlington Heights, Ill.) and the signal was visualized with X-ray film (Hyperfilm, Amersham, Arlington Heights, Ill.). For reprobing purposes, blots were stripped using Restore Western Blot Stripping Buffer from Pierce Biotechnology (Rockford, Ill.). Phospho-MKK3/6 (Ser189/207), phospho-p38 (Thr180/Tyr182), phospho-ATF-2 (Thr69/71), phospho-c-Raf (Ser259), phospho-MEK1/2 (Ser217/221), total MEK1/2, phospho-ERK1/2 (Thr202/Tyr204), total ERK1/2, phospho-p90RSK (Ser380), total RSK, phospho-PDK1 (Ser241), total PDKI, phospho-PTEN (Ser380), total PTEN, phospho-Akt (Ser473), total Akt, phospho-GSK-3β (Ser9), total GSK-3β, phospho-FKHRLI (Thr32)/-FKHR (Thr24), phospho-FKHR (Ser256) primary antibodies were obtained from Cell Signaling Technology (Beverly, Mass.). Total MKK3, total MKK6, total p38, total ATF-2, total c-Raf, total FKHR, total FKHRLI, phospho-JNK and total JNK were purchased from Santa Cruz Biotechnology (Santa Cruz, Calif.). Caspase 3, caspase 9, and PARP antibodies were obtained from Pharmingen (San Diego, Calif.) and anti-MKP1 from Upstate (Lake Placid, N.Y.). Anti-caspase 8 mouse serum was a generous gift of Dr. Marcus Peter (University of Chicago).
MM.1 S cells were exposed to 10 μM 8-NH2-Ado for 0, 0.5, 1, 2, 4 and 6 hours, after which cells were lysed as previously (Example 2). 30 μg of protein was separated by gel electrophoresis, transferred to PVDF membrane, and probed with phosphorylation-specific antibodies to MKK3/6, p38 MAPK, ATF-2, MEK1/2, ERK1/2, p90RSK, JNK1, PDK1, Akt, FKHRL1 and GSK-3β. […] FIGS. 1A, 1B, 1C and 1D provide the results of the blots.
MM. I S cells were treated with 10 μM 8-chloro-adenosine for 0, 0.5, 1, 2, 4 or 6 hours or 10 μM of cytarabine, fludarabine, gemcitabine or 8-amino-adenosine for 4 hours. Cells were lysed as previously described and 30 μg of protein was separated by gel electrophoresis, transferred to PVDF membrane, and probed with phospho-p38 MAPK (Thr180/Tyr182) antibody.
In a parallel approach to test the involvement of cellular phosphatases, we treated MM.1 S cells with varying concentrations of the phosphatase inhibitor okadaic acid in combination with 8-NH2-Ado for 4 hours to assess whether the serine/threonine phosphatases PP2A and PPI are involved.

As to `Nc1ncnc2c1nc(N)n2[C@@H]1O[C@H](CO)[C@@H](O)[C@H]1O` [8-NH2-Ado, 8-amino-adenosine], the “phosphorylation of p38” value (4 hours) was “dramatic loss of phosphorylation”. In addition, the p38 phosphorylation levels entry is recorded as “no appreciable phosphorylation” (after 2 hours) and “dramatically reduced” (by 1 hour).
